From US5223526A, “Pyrazole carboxanilide fungicides and use” (Monsanto Company, priority 1992, dated 1993)

Columns and labels:
succinate dehydrogenase = biological target: T1, succinate dehydrogenase (Botrytis cinerea, UniProt A0A384J5E4+A0A384J8V8+A0A384JHJ5); test: Enzyme inhibition: succinate dehydrogenase activity in Botrytis cinerea mitochondria (DCPIP reduction); format: biochemical; details: concentration required to inhibit the rate of DCPIP reduction by 50%; Botrytis cinerea isolate Nick mitochondria; read-out: I50 (μM conc.)
T1 construct: succinate-DCPIP reductase assay with KCN
How it was run: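 Crude mitochondria from Botrytis cinerea isolate Nick mycelia, prepared by bead-beating and differential centrifugation, started reactions. SDH activity followed as DCPIP reduction at 600 nm in 50 mM K-phosphate pH 7.2 with 1 mM KCN, 45 μM DCPIP, 17 mM succinate, 1% acetone. I50 from semilog inhibition plots, corrected for succinate-free rates.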

Botrytis cinerea [1] = test: Eggplant grey mold; format: in vivo; set-up: scale not given here; details: inoculated 24 h later, rated after 3-4 days; for Disease Control Rating at 20 ppm: eggplant sprayed with 20 ppm; for Disease Control Rating at 100 ppm: eggplant sprayed with 100 ppm; for Disease Control Rating at 500 ppm: eggplant sprayed with 500 ppm
How it was run: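 Protective test: compound formulations (2:3 acetone:water, 0.5% Tween 20; 500, 100 or 20 ppm) sprayed on 14-18-day-old plants, with spore inoculum (4×10^6 spore/mL) applied a day later. Disease control rated on Botrytis lesions after 3-4 days at 23 °C and 100% humidity.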

Botrytis cinerea [2] = test: Vine grey mold (grape berries); format: in vivo; details: average of six berries, 7-10 days; for pest or weed control at 50 ppm: grape berries treated with 50 ppm, read-out: % DISEASE CONTROL 50 ppm; for pest or weed control at 200 ppm: grape berries treated with 200 ppm, read-out: % DISEASE CONTROL 200 ppm
How it was run: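 Preventive berry test: compound at 50 or 200 ppm (acetone/water, 0.05% Tween 20) applied one day before inoculation with 10^6 spores/mL Botrytis conidia. After 7-10 days at 20 °C under 12 h light, infected surface area rated; disease control expressed as percent reduction from control mean; repeated-test values averaged.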

Rhizoctonia solani = test: Rice sheath blight; format: in vivo; set-up: scale not given here; details: inoculated two days later, rated after 7 days, average of five plants; for Disease Control Rating at 0.02 mg/mL: foliage and soil sprayed with 0.02 mg/mL; for Disease Control Rating at 0.1 mg/mL: foliage and soil sprayed with 0.1 mg/mL; for Disease Control Rating at 0.5 mg/mL: foliage and soil sprayed with 0.5 mg/mL
How it was run: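 Rice plants 11–15 days old had foliage and soil sprayed with 0.5, 0.1 or 0.02 mg/mL Compound A in water/acetone/Tween 20, then kept in flooded trays. Two days later, rice-grain Rhizoctonia solani inoculum went to plant bases; disease control scored versus untreated after 7 days at 25 °C, high humidity, averaging five plants.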

T1 sequence (A0A384J5E4 1-300): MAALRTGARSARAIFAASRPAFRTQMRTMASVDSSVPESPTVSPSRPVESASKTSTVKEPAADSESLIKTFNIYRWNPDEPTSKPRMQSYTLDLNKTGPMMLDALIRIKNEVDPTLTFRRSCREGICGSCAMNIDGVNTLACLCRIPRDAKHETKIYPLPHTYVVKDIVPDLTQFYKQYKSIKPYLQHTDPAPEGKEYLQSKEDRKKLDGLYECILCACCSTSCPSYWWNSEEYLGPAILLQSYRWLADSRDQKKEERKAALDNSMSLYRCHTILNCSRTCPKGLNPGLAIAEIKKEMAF
T1 sequence (A0A384J8V8 1-189): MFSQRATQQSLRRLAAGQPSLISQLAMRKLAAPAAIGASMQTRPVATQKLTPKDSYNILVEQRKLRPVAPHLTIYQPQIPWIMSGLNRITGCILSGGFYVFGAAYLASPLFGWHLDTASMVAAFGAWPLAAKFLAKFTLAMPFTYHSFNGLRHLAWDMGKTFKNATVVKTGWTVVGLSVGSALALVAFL
T1 sequence (A0A384JHJ5 1-192): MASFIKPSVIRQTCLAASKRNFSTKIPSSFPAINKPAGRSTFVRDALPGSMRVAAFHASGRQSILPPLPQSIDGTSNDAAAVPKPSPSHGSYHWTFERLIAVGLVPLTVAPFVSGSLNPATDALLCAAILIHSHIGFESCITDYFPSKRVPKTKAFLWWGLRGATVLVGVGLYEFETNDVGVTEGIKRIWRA
T1 sequence (A0A384K456 1-647 partner): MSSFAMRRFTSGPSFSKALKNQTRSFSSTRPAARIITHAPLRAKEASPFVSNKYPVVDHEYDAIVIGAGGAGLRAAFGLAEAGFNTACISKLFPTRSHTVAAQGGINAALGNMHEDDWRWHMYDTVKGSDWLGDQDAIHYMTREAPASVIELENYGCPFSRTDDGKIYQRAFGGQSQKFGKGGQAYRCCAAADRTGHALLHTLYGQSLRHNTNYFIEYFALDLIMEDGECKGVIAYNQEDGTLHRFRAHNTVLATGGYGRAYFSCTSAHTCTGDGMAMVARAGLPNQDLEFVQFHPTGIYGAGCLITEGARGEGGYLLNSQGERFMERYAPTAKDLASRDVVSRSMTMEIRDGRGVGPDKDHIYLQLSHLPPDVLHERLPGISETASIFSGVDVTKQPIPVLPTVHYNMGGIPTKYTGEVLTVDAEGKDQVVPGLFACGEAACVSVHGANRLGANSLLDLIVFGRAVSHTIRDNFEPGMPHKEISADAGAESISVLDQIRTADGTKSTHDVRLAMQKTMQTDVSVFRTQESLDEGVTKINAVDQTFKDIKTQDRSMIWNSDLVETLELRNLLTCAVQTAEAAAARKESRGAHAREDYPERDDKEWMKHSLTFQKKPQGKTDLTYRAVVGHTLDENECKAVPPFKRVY

Row | SMILES | IC50 (succinate dehydrogenase) [µM] | Disease Control Rating at 20 ppm (Botrytis cinerea [1]) | Disease Control Rating at 100 ppm (Botrytis cinerea [1]) | Disease Control Rating at 500 ppm (Botrytis cinerea [1]) | pest or weed control at 50 ppm (Botrytis cinerea [2]) [%] | pest or weed control at 200 ppm (Botrytis cinerea [2]) [%] | Disease Control Rating at 0.02 mg/mL (Rhizoctonia solani) | Disease Control Rating at 0.1 mg/mL (Rhizoctonia solani) | Disease Control Rating at 0.5 mg/mL (Rhizoctonia solani)
1 | Cn1cc(C(=O)Nc2ccccc2C2(C)CCCC2)c(C(F)F)n1 [Example 83, 1H-pyrazole-4-carboxamide, 3-(difluoromethyl)-1-methyl-N-[2-(1-methylcyclopentyl)phenyl]-] | 0.13 | 0 | 0 | 2 | 56 | 55 | 3 | 3 | 3
2 | Cn1cc(C(=O)Nc2ccccc2C2CCCCCC2)c(C(F)F)n1 [Example 9, 1H-pyrazole-4-carboxamide, N-(2-cycloheptylphenyl)-3-(difluoromethyl)-1-methyl-] | 0.0019 | 0 | 2 | 2 | 94 | 89 | 3 | 3 | 3
3 | Cc1nn(C)cc1C(=O)Nc1ccccc1C1CCCCC1 [Example 3, 1H-pyrazole-4-carboxamide, N-(2-cyclohexylphenyl)-1,3-dimethyl-] | 0.027 | 0 | 1 | 2 | 10 | 62 |  |  | 0
4 | Cn1cc(C(=O)Nc2ccccc2C=C2CCCCCC2)c(C(F)F)n1 [Example 147, 1H-pyrazole-4-carboxamide, N-[2-(cycloheptylidenemethyl)phenyl]-1-methyl-3-(difluoromethyl)-] | 0.02 | 0 | 0 | 0 | 0 | 0 |  |  | 2
5 | Cn1cc(C(=O)Nc2ccccc2OCC2CCC2)c(C(F)(F)F)n1 [Example 43, 1H-pyrazole-4-carboxamide, N-[2-(cyclobutylmethoxy)phenyl]-1-methyl-3-(trifluoromethyl)-] | 0.38 |  |  | 0 | 3 | 0 | 2 | 3 | 3
6 | Cn1cc(C(=O)Nc2ccccc2C2CCCCC2)c(C(F)(F)F)n1 [Example 2, 1H-pyrazole-4-carboxamide, N-(2-cyclohexylphenyl)-1-methyl-3-(trifluoromethyl)-] | 0.012 | 1 | 3 | 3 | 84 | 87 | 3 | 3 | 3
7 | CC(c1ccccc1NC(=O)c1cn(C)nc1C(F)(F)F)C1CCCC1 (centres unmarked) [Example 53, 1H-pyrazole-4-carboxamide, N-[2-(1-cyclopentylethyl)phenyl]-1-methyl-3-(trifluoromethyl)-] | 0.021 |  |  | 0 | 40 | 70 | 2 | 3 | 3
8 | Cn1cc(C(=O)Nc2ccccc2C2CC(C)(C)CC(C)(C)C2)c(C(F)(F)F)n1 [Example 139, 1H-pyrazole-4-carboxamide, 1-methyl-N-[2-(3,3,5,5-tetramethylcyclohexyl)phenyl]-3-(trifluoromethyl)-] | 0.032 | 0 | 0 | 0 | 2 | 1 | 2 | 2 | 3
9 | CC1=C(c2ccccc2NC(=O)c2cn(C)nc2C(F)F)C(C)CCC1 (centres unmarked) [Example 124, 1H-pyrazole-4-carboxamide, 3-(difluoromethyl)-N-[2-(2,6-dimethyl-1-cyclohexen-1-yl)phenyl]-1-methyl-] | 0.013 | 0 | 1 | 2 | 48 | 96 |  |  | 2
10 | Cn1cc(C(=O)Nc2ccccc2C2(C)CCCC2)c(C(F)(F)F)n1 [Example 67, 1H-pyrazole-4-carboxamide, 1-methyl-N-[2-(1-methylcyclopentyl)phenyl]-3-(trifluoromethyl)-] | 0.056 | 0 | 1 | 2 | 31 | 0 |  |  | 2
11 | Cc1nn(C)c(F)c1C(=O)Nc1ccccc1C1CCCCCC1 [Example 113, 1H-pyrazole-4-carboxamide, N-(2-cycloheptylphenyl)-5-fluoro-1,3-dimethyl-] | 0.013 | 1 | 1 | 3 | 28 | 60 | 3 | 3 | 3
12 | Cn1nc(C(F)(F)F)c(C(=O)Nc2ccccc2[C@@H]2C[C@H]3CC[C@@H]2C3)c1Cl (relative stereo) [Example 88, 1H-pyrazole-4-carboxamide, N-(2-bicyclo[2.2.1]hept-2-ylphenyl)-5-chloro-1-methyl-3-(trifluoromethyl)-, exo-] | 0.035 |  |  | 0 | 0 | 0 |  |  | 0
13 | Cc1c(C(=O)Nc2ccccc2C2CCCCCC2)c(C(F)(F)F)nn1C [Example 99, 1H-pyrazole-4-carboxamide, N-(2-cycloheptylphenyl)-1,5-dimethyl-3-(trifluoromethyl)-] | 0.065 |  |  | 1 | 27 | 53 | 2 | 3 | 3
14 | Cn1nc(C(F)(F)F)c(C(=O)Nc2ccccc2C2CCCCC2)c1F [Example 84, 1H-pyrazole-4-carboxamide, N-(2-cyclohexylphenyl)-5-fluoro-1-methyl-3-(trifluoromethyl)-] | 0.013 | 0 | 1 | 2 | 93 | 96 |  |  | 0
15 | Cn1cc(C(=O)Nc2ccccc2C2=CCOCC2)c(C(F)F)n1 [Example 104, 1H-pyrazole-4-carboxamide, 3-(difluoromethyl)-N-[2-(5,6-dihydro-2H-pyran-4-yl)phenyl]-1-methyl-] | 0.77 |  |  | 0 | 0 | 48 |  |  | 0
16 | Cn1cc(C(=O)Nc2ccccc2O[C@@H]2C[C@H]3CC[C@@H]2C3)c(C(F)F)n1 (relative stereo) [Example 80, 1H-pyrazole-4-carboxamide, N-[2-(bicyclo[2.2.1]hept-2-yloxy)-phenyl]-3-(difluoromethyl)-1-methyl-, exo-] | 0.083 |  |  | 0 | 0 | 0 | 2 | 3 | 3
17 | Cn1cc(C(=S)Nc2ccccc2C2CCCCC2)c(C(F)F)n1 [Example 77, 1H-pyrazole-4-carbothioamide, N-(2-cyclohexylphenyl)-3-(difluoromethyl)-1-methyl] | 22 | 0 | 1 | 2 | 85 | 82 |  |  | 0
